Measurements published in US20180153168A1, “A PRIMER FOR PESTICIDES” (PANGAEA AGROCHEMICALS LIMITED, priority 2015, published 2018).
Read-outs that look alike come from different tables or passages of the source.

Tests used:
[1] = tested on: glyphosate resistant strain of Italian ryegrass; assay: Control of glyphosate resistant Italian ryegrass, piperonyl butoxide pre-treatment then glyphosate (Western Australia); format: in vivo; conditions: glyphosate without piperonyl butoxide; 8 replicated trials; FIG. 1
[2] = tested on: clodinafop resistant strains of blackgrass
Description: Further experiments were carried out using clodinafop resistant strains of blackgrass.
Daytime temperature of 11° C. Night time temperature of 8° C.

plant crop = conditions: optimised dose rate
Description: Preferably, the time delay is from 1 to 24 hours, preferably from 2 to 8 hours. However, the time delay required varies with temperature and dose rate. […] (these time delays assume an optimised dose rate).

pollen beetle = conditions: with insecticides
white fly = conditions: with insecticides
plants = conditions: applied alone, in the absence of any active ingredients; cited from earlier work
[3] = piperonyl butoxide 320 grams per ha then clodinafop 250 g ai/ha, daytime 11° C., night 8° C., FIG. 9

Compound	level of control [1]	optimum delay ([2]; early autumn trials, ambient temperature of the order of 18° C.)	delays showing high levels of control [2, 3]	optimum delay for efficacy [2, 3]	optimum time delay (plant crop; 11° C.)	optimum time delay (plant crop; 15° C.)	optimum time delay (plant crop; 25° C.)	optimum delay for application (pollen beetle)	optimum delay for application (white fly)	toxicity to plants (plants)
O=C(O)CNCP(=O)(O)O [glyphosate]	minimal									
CCCCOCCOCCOCc1cc2c(cc1CCC)OCO2 [piperonyl butoxide]		2 to 8 h	8 to 16 h	approximately 8 hours	8 h	4 h	2.5 h	approximately 1 hour	~8 h	not detectable
